Measured values from ChEMBL document CHEMBL3045660, “Regioselective synthesis of fraxinellone-based hydrazone derivatives as insecticidal agents” (2012).

Legend:
Assay type in all cases: functional
Mythimna separata [1] = experiment: Insecticidal activity against pre-third-instar larvae of Mythimna separata (Oriental armyworm) in compound treated fresh corn leaves assessed as corrected mortality at 1 mg/ml measured after 35 days by leaf-dipping method; details: 840 h
Mythimna separata [2] = experiment: Insecticidal activity against pre-third-instar larvae of Mythimna separata (Oriental armyworm) in compound treated fresh corn leaves assessed as corrected mortality at 1 mg/ml measured after 20 days by leaf-dipping method; details: 480 h
Mythimna separata [3] = experiment: Insecticidal activity against pre-third-instar larvae of Mythimna separata (Oriental armyworm) in compound treated fresh corn leaves assessed as corrected mortality at 1 mg/ml measured after 10 days by leaf-dipping method; details: 240 h

## CC1=C2C(=O)O[C@@H](c3ccoc3)[C@]2(C)CC/C1=N\Nc1ccccc1[N+](=O)[O-]
Mythimna separata [1]
  mortality at 1000 µg/mL: 46.2%
Mythimna separata [2]
  mortality at 1000 µg/mL: 33.3%
Mythimna separata [3]
  mortality at 1000 µg/mL: 24.1%

## C[C@@]12CCCC(/C=N/Nc3ccccc3[N+](=O)[O-])=C1C(=O)O[C@H]2c1ccoc1
Mythimna separata [1]
  mortality at 1000 µg/mL: 50%
Mythimna separata [2]
  mortality at 1000 µg/mL: 37%
Mythimna separata [3]
  mortality at 1000 µg/mL: 13.8%

## CC1=C2C(=O)O[C@@H](c3ccoc3)[C@]2(C)CC/C1=N\Nc1c(F)c(F)cc(F)c1F
Mythimna separata [1]
  mortality at 1000 µg/mL: 50%
Mythimna separata [2]
  mortality at 1000 µg/mL: 40.7%
Mythimna separata [3]
  mortality at 1000 µg/mL: 27.6%

## C[C@@]12CCCC(/C=N/Nc3ccc([N+](=O)[O-])cc3)=C1C(=O)O[C@H]2c1ccoc1
Mythimna separata [1]
  mortality at 1000 µg/mL: 38.5%
Mythimna separata [2]
  mortality at 1000 µg/mL: 14.8%
Mythimna separata [3]
  mortality at 1000 µg/mL: 20.7%

## C[C@@]12CCCC(/C=N/NC(=O)c3ccc([N+](=O)[O-])cc3)=C1C(=O)O[C@H]2c1ccoc1
Mythimna separata [1]
  mortality at 1000 µg/mL: 61.5%
Mythimna separata [2]
  mortality at 1000 µg/mL: 48.1%
Mythimna separata [3]
  mortality at 1000 µg/mL: 37.9%

## CC1=C2C(=O)O[C@@H](c3ccoc3)[C@]2(C)CC/C1=N\Nc1ccccc1
Mythimna separata [1]
  mortality at 1000 µg/mL: 46.2%
Mythimna separata [2]
  mortality at 1000 µg/mL: 22.2%
Mythimna separata [3]
  mortality at 1000 µg/mL: 10.3%

## C[C@@]12CCCC(/C=N/NC(=O)c3cccc(Cl)c3)=C1C(=O)O[C@H]2c1ccoc1
Mythimna separata [1]
  mortality at 1000 µg/mL: 53.8%
Mythimna separata [2]
  mortality at 1000 µg/mL: 40.7%
Mythimna separata [3]
  mortality at 1000 µg/mL: 44.8%

## C[C@@]12CCCC(/C=N/NC(=O)CC#N)=C1C(=O)O[C@H]2c1ccoc1
Mythimna separata [1]
  mortality at 1000 µg/mL: 69.2%
Mythimna separata [2]
  mortality at 1000 µg/mL: 66.7%
Mythimna separata [3]
  mortality at 1000 µg/mL: 55.2%

## Cc1cccc(C(=O)N/N=C/C2=C3C(=O)O[C@@H](c4ccoc4)[C@]3(C)CCC2)c1
Mythimna separata [1]
  mortality at 1000 µg/mL: 53.8%
Mythimna separata [2]
  mortality at 1000 µg/mL: 44.4%
Mythimna separata [3]
  mortality at 1000 µg/mL: 41.4%

## CC1=C2C(=O)O[C@@H](c3ccoc3)[C@]2(C)CC/C1=N\NC(=O)c1ccncc1
Mythimna separata [1]
  mortality at 1000 µg/mL: 50%
Mythimna separata [2]
  mortality at 1000 µg/mL: 33.3%
Mythimna separata [3]
  mortality at 1000 µg/mL: 24.1%

## C[C@@]12CCCC(/C=N/Nc3ccccc3)=C1C(=O)O[C@H]2c1ccoc1
Mythimna separata [1]
  mortality at 1000 µg/mL: 53.8%
Mythimna separata [2]
  mortality at 1000 µg/mL: 44.4%
Mythimna separata [3]
  mortality at 1000 µg/mL: 27.6%

## CC1=C2C(=O)O[C@@H](c3ccoc3)[C@]2(C)CCC1=O [FRAXINELLONONE]
Mythimna separata [1]
  mortality at 1000 µg/mL: 57.7%
Mythimna separata [2]
  mortality at 1000 µg/mL: 48.1%
Mythimna separata [3]
  mortality at 1000 µg/mL: 48.3%

## C[C@@]12CCCC(/C=N/NC(=O)c3cccs3)=C1C(=O)O[C@H]2c1ccoc1
Mythimna separata [1]
  mortality at 1000 µg/mL: 34.6%
Mythimna separata [2]
  mortality at 1000 µg/mL: 29.6%
Mythimna separata [3]
  mortality at 1000 µg/mL: 24.1%

## C[C@@]12CCCC(/C=N/NC(=O)c3ccc([N+](=O)[O-])cc3[N+](=O)[O-])=C1C(=O)O[C@H]2c1ccoc1
Mythimna separata [1]
  mortality at 1000 µg/mL: 53.8%
Mythimna separata [2]
  mortality at 1000 µg/mL: 40.7%
Mythimna separata [3]
  mortality at 1000 µg/mL: 31%

## C[C@@]12CCCC(/C=N/NC(=O)c3ccccc3)=C1C(=O)O[C@H]2c1ccoc1
Mythimna separata [1]
  mortality at 1000 µg/mL: 65.4%
Mythimna separata [2]
  mortality at 1000 µg/mL: 55.6%
Mythimna separata [3]
  mortality at 1000 µg/mL: 58.6%

## CC1=C2C(=O)O[C@@H](c3ccoc3)[C@]2(C)CC/C1=N\Nc1ccc([N+](=O)[O-])cc1
Mythimna separata [1]
  mortality at 1000 µg/mL: 53.8%
Mythimna separata [2]
  mortality at 1000 µg/mL: 40.7%
Mythimna separata [3]
  mortality at 1000 µg/mL: 34.5%

## CC1=C2C(=O)O[C@@H](c3ccoc3)[C@]2(C)CC/C1=N\NC(=O)CC#N
Mythimna separata [1]
  mortality at 1000 µg/mL: 61.5%
Mythimna separata [2]
  mortality at 1000 µg/mL: 33.3%
Mythimna separata [3]
  mortality at 1000 µg/mL: 34.5%

## CC(=O)O[C@@H]1C[C@H](O)[C@@]23CO[C@@H](O)[C@]1(C)[C@@H]2C[C@@H](O)[C@]1(C)[C@@H]3C(=O)[C@H](OC(C)=O)[C@@]2(C)[C@H](c3ccoc3)C[C@H]3O[C@]321 [TOOSENDANIN]
Mythimna separata [1]
  mortality at 1000 µg/mL: 53.8%
Mythimna separata [2]
  mortality at 1000 µg/mL: 33.3%
Mythimna separata [3]
  mortality at 1000 µg/mL: 24.1%

## C[C@@]12CCCC(/C=N/Nc3c(F)c(F)cc(F)c3F)=C1C(=O)O[C@H]2c1ccoc1
Mythimna separata [1]
  mortality at 1000 µg/mL: 61.5%
Mythimna separata [2]
  mortality at 1000 µg/mL: 40.7%
Mythimna separata [3]
  mortality at 1000 µg/mL: 37.9%

## CC1=C2C(=O)O[C@@H](c3ccoc3)[C@]2(C)CC/C1=N\NC(=O)c1cccc(Cl)c1
Mythimna separata [1]
  mortality at 1000 µg/mL: 69.2%
Mythimna separata [2]
  mortality at 1000 µg/mL: 59.3%
Mythimna separata [3]
  mortality at 1000 µg/mL: 58.6%

## COc1ccc(C(=O)N/N=C/C2=C3C(=O)O[C@@H](c4ccoc4)[C@]3(C)CCC2)cc1
Mythimna separata [1]
  mortality at 1000 µg/mL: 50%
Mythimna separata [2]
  mortality at 1000 µg/mL: 44.4%
Mythimna separata [3]
  mortality at 1000 µg/mL: 37.9%

## C[C@@]12CCCC(/C=N/NC(=O)c3ccncc3)=C1C(=O)O[C@H]2c1ccoc1
Mythimna separata [1]
  mortality at 1000 µg/mL: 73.1%
Mythimna separata [2]
  mortality at 1000 µg/mL: 66.7%
Mythimna separata [3]
  mortality at 1000 µg/mL: 55.2%

## CC1=C2C(=O)O[C@@H](c3ccoc3)[C@]2(C)CC/C1=N\NC(=O)c1ccccc1
Mythimna separata [1]
  mortality at 1000 µg/mL: 76.9%
Mythimna separata [2]
  mortality at 1000 µg/mL: 63%
Mythimna separata [3]
  mortality at 1000 µg/mL: 58.6%

## CC1=C2C(=O)O[C@@H](c3ccoc3)[C@]2(C)CC/C1=N\NC(=O)c1cccs1
Mythimna separata [1]
  mortality at 1000 µg/mL: 38.5%
Mythimna separata [2]
  mortality at 1000 µg/mL: 29.6%
Mythimna separata [3]
  mortality at 1000 µg/mL: 20.7%

## CC1=C2C(=O)O[C@@H](c3ccoc3)[C@]2(C)CCC1 [FRAXINELLONE]
Mythimna separata [1]
  mortality at 1000 µg/mL: 53.8%
Mythimna separata [2]
  mortality at 1000 µg/mL: 40.7%
Mythimna separata [3]
  mortality at 1000 µg/mL: 41.4%

## CC1=C2C(=O)O[C@@H](c3ccoc3)[C@]2(C)CC/C1=N\NC(=O)c1ccc([N+](=O)[O-])cc1
Mythimna separata [1]
  mortality at 1000 µg/mL: 65.4%
Mythimna separata [2]
  mortality at 1000 µg/mL: 63%
Mythimna separata [3]
  mortality at 1000 µg/mL: 58.6%

## C[C@@]12CCCC(C=O)=C1C(=O)O[C@H]2c1ccoc1 [3-FORMYLFRAXINELLONE]
Mythimna separata [1]
  mortality at 1000 µg/mL: 34.6%
Mythimna separata [2]
  mortality at 1000 µg/mL: 25.9%
Mythimna separata [3]
  mortality at 1000 µg/mL: 17.2%
